Measurements published in ChEMBL document CHEMBL1152855, “Regioselective synthesis of dispiro[1H-indene-2,3'-pyrrolidine-2',3''-[3H]indole]-1,2''(1''H)-diones of potential anti-tumor properties” (2009).

Columns and labels:
[1] = test system: HOP-62; experiment: Growth inhibition of human HOP62 cells at 10 uM after 48 hrs by sulforhodamine B assay; assay type: functional; details: HOP-62, 48 h, values are per cent of control
[2] = test system: HOP-92; experiment: Growth inhibition of human HOP92 cells at 10 uM after 48 hrs by sulforhodamine B assay; assay type: functional; details: HOP-92, 48 h, read-out: GI
[3] = test system: NCI-H226; experiment: Growth inhibition of human NCI-H226 cells at 10 uM after 48 hrs by sulforhodamine B assay; assay type: functional; details: NCI-H226, 48 h, values are per cent of control
[4] = test system: NCI-H23; experiment: Growth inhibition of human NCI-H23 cells at 10 uM after 48 hrs by sulforhodamine B assay; assay type: functional; details: NCI-H23, 48 h, values are per cent of control
[5] = test system: NCI-H322M; experiment: Growth inhibition of human NCI-H322M cells at 10 uM after 48 hrs by sulforhodamine B assay; assay type: functional; details: values are per cent of control
[6] = test system: NCI-H460; experiment: Growth inhibition of human NCI-H460 cells at 10 uM after 48 hrs by sulforhodamine B assay; assay type: functional; details: NCI-H460, 48 h, values are per cent of control
[7] = test system: COLO 205; experiment: Growth inhibition of human COLO205 cells at 10 uM after 48 hrs by sulforhodamine B assay; assay type: functional; details: COLO 205, 48 h, values are per cent of control
[8] = test system: HCT-116; experiment: Growth inhibition of human HCT116 cells at 10 uM after 48 hrs by sulforhodamine B assay; assay type: functional; details: HCT-116, 48 h, values are per cent of control
[9] = test system: HCT-15; experiment: Growth inhibition of human HCT15 cells at 10 uM after 48 hrs by sulforhodamine B assay; assay type: functional; details: HCT-15, 48 h, values are per cent of control
[10] = test system: HT-29; experiment: Growth inhibition of human HT-29 cells at 10 uM after 48 hrs by sulforhodamine B assay; assay type: functional; details: HT-29, 48 h, values are per cent of control
[11] = test system: KM12; experiment: Growth inhibition of human KM12 cells at 10 uM after 48 hrs by sulforhodamine B assay; assay type: functional; details: KM12, 48 h, values are per cent of control
[12] = test system: BT-549; experiment: Growth inhibition of human BT549 cells at 10 uM after 48 hrs by sulforhodamine B assay; assay type: functional; details: BT-549, 48 h, values are per cent of control
[13] = Growth inhibition of human Hs 578T cells at 10 uM after 48 hrs by sulforhodamine B assay; assay type: functional; details: values are per cent of control
[14] = test system: MDA-MB-435; experiment: Growth inhibition of human MDA-MB-435 cells at 10 uM after 48 hrs by sulforhodamine B assay; assay type: functional; details: MDA-MB-435, 48 h, values are per cent of control
[15] = test system: NCI/ADR-RES; experiment: Growth inhibition of human NCI/ADR-RES cells at 10 uM after 48 hrs by sulforhodamine B assay; assay type: functional; details: values are per cent of control
[16] = test system: OVCAR-3; experiment: Growth inhibition of human OVCAR-3 cells at 10 uM after 48 hrs by sulforhodamine B assay; assay type: functional; details: OVCAR-3, 48 h, values are per cent of control
[17] = test system: OVCAR-5; experiment: Growth inhibition of human OVCAR5 cells at 10 uM after 48 hrs by sulforhodamine B assay; assay type: functional; details: OVCAR-5, 48 h, values are per cent of control
[18] = test system: SK-OV-3; experiment: Growth inhibition of human SKOV3 cells at 10 uM after 48 hrs by sulforhodamine B assay; assay type: functional; details: SK-OV-3, 48 h, values are per cent of control
[19] = test system: CCRF-CEM; experiment: Growth inhibition of human CCRF-CEM cells at 10 uM after 48 hrs by sulforhodamine B assay; assay type: functional; details: values are per cent of control
[20] = test system: K562; experiment: Growth inhibition of human K562 cells at 10 uM after 48 hrs by sulforhodamine B assay; assay type: functional; details: K562, 48 h, values are per cent of control
[21] = test system: MOLT-4; experiment: Growth inhibition of human MOLT4 cells at 10 uM after 48 hrs by sulforhodamine B assay; assay type: functional; details: MOLT-4, 48 h, values are per cent of control
[22] = test system: RPMI-8226; experiment: Growth inhibition of human RPMI8226 cells at 10 uM after 48 hrs by sulforhodamine B assay; assay type: functional; details: RPMI-8226, 48 h, read-out: GI
[23] = test system: SR; experiment: Growth inhibition of human SR cells at 10 uM after 48 hrs by sulforhodamine B assay; assay type: functional; details: values are per cent of control
[24] = test system: 786-0; experiment: Growth inhibition of human 786-0 cells at 10 uM after 48 hrs by sulforhodamine B assay; assay type: functional; details: 786-0, 48 h, values are per cent of control
[25] = test system: SN12C; experiment: Growth inhibition of human SN12C cells at 10 uM after 48 hrs by sulforhodamine B assay; assay type: functional; details: values are per cent of control
[26] = test system: Rattus norvegicus; experiment: Antiinflammatory activity against carrageenan-induced paw edema in Wister albino rat assessed as inhibition of edema at 50 mg/kg, ip administered 1 hr prior to carrageenan challenge measured after 4 hrs relative to indomethacin; assay type: functional; details: route intraperitoneal
[27] = test system: UO-31; experiment: Growth inhibition of human UO31 cells at 10 uM after 48 hrs by sulforhodamine B assay; assay type: functional; details: UO-31, 48 h, values are per cent of control
[28] = test system: SK-MEL-2; experiment: Growth inhibition of human SK-MEL-2 cells at 10 uM after 48 hrs by sulforhodamine B assay; assay type: functional; details: SK-MEL-2, 48 h, read-out: GI
[29] = test system: UACC-257; experiment: Growth inhibition of human UACC257 cells at 10 uM after 48 hrs by sulforhodamine B assay; assay type: functional; details: UACC-257, 48 h, values are per cent of control
[30] = test system: DU-145; experiment: Growth inhibition of human DU145 cells at 10 uM after 48 hrs by sulforhodamine B assay; assay type: functional; details: DU-145, 48 h, values are per cent of control
[31] = test system: SF-295; experiment: Growth inhibition of human SF295 cells at 10 uM after 48 hrs by sulforhodamine B assay; assay type: functional; details: SF-295, 48 h, values are per cent of control
[32] = test system: SF-539; experiment: Growth inhibition of human SF539 cells at 10 uM after 48 hrs by sulforhodamine B assay; assay type: functional; details: SF-539, 48 h, values are per cent of control
[33] = test system: SNB-19; experiment: Growth inhibition of human SNB19 cells at 10 uM after 48 hrs by sulforhodamine B assay; assay type: functional; details: SNB-19, 48 h, values are per cent of control
[34] = test system: U-251; experiment: Growth inhibition of human U251 cells at 10 uM after 48 hrs by sulforhodamine B assay; assay type: functional; details: U-251, 48 h, values are per cent of control
[35] = test system: Rattus norvegicus; experiment: Antiinflammatory activity against carrageenan-induced paw edema in Wister albino rat assessed as inhibition of edema at 50 mg/kg, ip administered 1 hr prior to carrageenan challenge measured after 1 hr relative to control; assay type: functional; details: route intraperitoneal
[36] = test system: Rattus norvegicus; experiment: Antiinflammatory activity against carrageenan-induced paw edema in Wister albino rat assessed as inhibition of edema at 50 mg/kg, ip administered 1 hr prior to carrageenan challenge measured after 2 hrs relative to control; assay type: functional; details: route intraperitoneal
[37] = test system: Rattus norvegicus; experiment: Antiinflammatory activity against carrageenan-induced paw edema in Wister albino rat assessed as inhibition of edema at 50 mg/kg, ip administered 1 hr prior to carrageenan challenge measured after 3 hrs relative to control; assay type: functional; details: route intraperitoneal
[38] = test system: TK-10; experiment: Growth inhibition of human TK10 cells at 10 uM after 48 hrs by sulforhodamine B assay; values are per cent of control; details: TK-10, 48 h

[3H]N1C(=O)[C@@]2(c3ccccc31)N(C)C[C@@H](c1ccc(OC)cc1)[C@@]21Cc2ccccc2C1=O
growth, % of control at 10 µM [1]: 100% | inhibition of growth at 10 µM [2]: 62.5% | growth, % of control at 10 µM [3]: 85.9% | growth, % of control at 10 µM [4]: 89.3% | growth, % of control at 10 µM [5]: 111% | growth, % of control at 10 µM [6]: 107% | growth, % of control at 10 µM [7]: 100% | growth, % of control at 10 µM [8]: 92.6% | growth, % of control at 10 µM [9]: 107% | growth, % of control at 10 µM [10]: 138% | growth, % of control at 10 µM [11]: 95.3% | growth, % of control at 10 µM [12]: 118% | growth, % of control at 10 µM [13]: 16.8% | growth, % of control at 10 µM [14]: 124% | growth, % of control at 10 µM [15]: 89.4% | growth, % of control at 10 µM [16]: 98.5% | growth, % of control at 10 µM [17]: 106% | growth, % of control at 10 µM [18]: 97.3% | growth, % of control at 10 µM [19]: 87.3% | growth, % of control at 10 µM [20]: 93.9% | growth, % of control at 10 µM [21]: 79.8% | inhibition of growth at 10 µM [22]: 66.8% | growth, % of control at 10 µM [23]: 140% | growth, % of control at 10 µM [24]: 102% | growth, % of control at 10 µM [25]: 105% | activity relative to indomethacin [26]: 45% | growth, % of control at 10 µM [27]: 92.5% | inhibition of growth at 10 µM [28]: 8.7% | growth, % of control at 10 µM [29]: 99.3% | growth, % of control at 10 µM [30]: 110% | growth, % of control at 10 µM [31]: 103% | growth, % of control at 10 µM [32]: 101% | growth, % of control at 10 µM [33]: 92.2% | growth, % of control at 10 µM [34]: 96.7% | inhibition in vivo at 50 mg/kg [35]: 41.2% | inhibition in vivo at 50 mg/kg [36]: 17.5% | inhibition in vivo at 50 mg/kg [37]: 20.5% | growth, % of control at 10 µM [38]: 176%
